Source: patent publication US5527828A, “Spin trap nitronyl hindered phenols” (priority 1995, dated 1996)
Where two headings read alike, the source gives them in different places.

Columns and labels:
[1] = system: rat liver microsomes
[2] = system: rat liver microsomes; test: Inhibition of lipid peroxidation (LPO) initiated by tert-butoxyl radicals in rat liver microsomes, TBA test for MDA (Example 1); conditions: for relative efficiency normalized to 1.0 for PBN: from IC50 data of Example 1; for IC50: read-out: Inhibitor Concentration of 50% Inhibition (IC50), RLM (I), LPO initiated by tert-butoxyl radicals, 37° C., one hour, pH 7.4, average of 5 experiments, interpolated, estimated or measured
[3] = system: rat brain microsomes; test: Inhibition of LPO in rat brain microsomes, TBA test for MDA production (Example 3); assay type: biochemical; conditions: for IC50: rat brain microsomes; for inhibition of LPO in these systems: conclusion in words on the data obtained
Protocol: Similar tests were performed with rat brain microsomes using the TBA test for MDA production as the result of LPO.

[4] = system: rat liver microsomes; conditions: read-out: Inhibitor Concentration of 50% Inhibition (IC50); RLM (II); LPO initiated by NADPH/cytochrome-P450 metabolism of CCl4; average of 5 experiments; interpolated
[5] = value in parentheses, read-out: IC50 RBM (III)

IC50 [1] [µM] | IC50 ([3]; RBM (III), TBA test for MDA) [µM] | IC50 [3, 5] [µM] | IC50 [4] [µM] | Structure (SMILES) | relative efficiency normalized to 1.0 for PBN ([2]; rat liver microsomes) | IC50 [2] [µM] | inhibition of LPO in these systems [3] | effectiveness as inhibitor of LPO compared with BHT ([2]; conclusion in words, taking into account experimental precision) | better than BHT as an inhibitor of LPO ([2]; rat liver microsomes, versus BHT) | times more effective as an inhibitor of LPO than PBN ([2]; rat liver microsomes, versus PBN)
55 |  |  |  | Cc1cc(C(C)(C)C)c(O)c(C(C)(C)C)c1 [BHT, butylated hydroxy toulene, reference compound] | 2000 | 5.3 |  |  |  | 
 | 0.7 | 0.7 | 53 | CC(C)(C)c1cc(C=[N+]([O-])C(C)(C)C)cc(C(C)(C)C)c1O [DBBNP, 2,6-di-tert-butyl-4-(N-tert-butyl) nitronyl phenol] | 2466 | 4.3 | very good inhibitors | at least as good as BHT and probably better | about 20% | about 2000 times
 | 0.3 | 0.3 | 35 | CC(C)(C)CC(C)(C)[N+]([O-])=Cc1cc(C(C)(C)C)c(O)c(C(C)(C)C)c1 [DBONP, 2,6-di-tert-butyl-4-(N-tert-octyl) nitronyl phenol] | 1828 | 5.8 | very good inhibitors |  |  | 
 | 600 |  | 710 | Cc1cc(C=[N+]([O-])C(C)(C)C)cc(C)c1O [DMBNP, 2,6-dimethyl-4-(N-tert-butyl) nitronyl phenol] | 46 | 230 |  |  |  | 
 | 70 |  | 60 | Cc1cc(C=[N+]([O-])C(C)(C)CC(C)(C)C)cc(C)c1O [DMONP, 2,6-dimethyl-4-(N-tert-octyl) nitronyl phenol] | 646 | 16.4 |  |  |  | 
 | 76 |  | 6500 | CC(C)(C)CC(C)(C)[N+]([O-])=Cc1ccccc1 [OPN, N-tert-octyl C-phenyl nitrone] | 24 | 462 |  |  |  | 
 |  |  |  | Cc1c(C)c2c(c(C)c1O)CCC(C)(CCCC(C)CCCC(C)CCCC(C)C)O2 (stereo not drawn) [Tocopherol, α-tocopherol, reference compound] | 354 | 30 |  |  |  | 

Structure (SMILES) | IC50 [1] [µM] | IC50 ([3]; RBM (III), TBA test for MDA) [µM] | IC50 [3, 5] [µM] | IC50 [4] [µM] | relative efficiency normalized to 1.0 for PBN ([2]; rat liver microsomes) | IC50 [2] [µM] | inhibition of LPO in these systems [3] | effectiveness as inhibitor of LPO compared with BHT ([2]; conclusion in words, taking into account experimental precision) | better than BHT as an inhibitor of LPO ([2]; rat liver microsomes, versus BHT) | times more effective as an inhibitor of LPO than PBN ([2]; rat liver microsomes, versus PBN)
CC(C)(C)[N+]([O-])=Cc1ccccc1 [PBN, α-phenyl t-butyl nitrone, reference compound] |  | 1000 |  | 17500 | 1.0 | 9800 |  |  |  | 
